Test results as given in PubChem BioAssay (NCI).
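Dose response: 5 concentrations. Exposure: 48 h. Format: 96-well plates. Endpoint: linear interpolation; highest concentration if not reached. GI50 = concentration required for 50% inhibition of growth. TGI: total growth inhibition.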

Columns and labels:
Experiment in all cases: growth of human tumour cells (NCI), 48 h
[1] = test system: SF-295 CNS
[2] = test system: HCC-2998 colon
[3] = test system: COLO 205 colon
[4] = test system: MCF7 breast
[5] = test system: HL-60(TB) leukemia
[6] = test system: LOX IMVI melanoma
[7] = test system: SF-539 CNS
[8] = test system: PC-3 prostate
[9] = test system: SK-OV-3 ovarian
[10] = test system: MOLT-4 leukemia

SMILES | GI50 [1] [µM] | TGI [1] [µM] | GI50 [2] [µM] | TGI [2] [µM] | GI50 [3] [µM] | TGI [3] [µM] | GI50 [4] [µM] | TGI [4] [µM] | GI50 [5] [µM] | TGI [5] [µM] | GI50 [6] [µM] | TGI [6] [µM] | GI50 [7] [µM] | TGI [7] [µM] | GI50 [8] [µM] | TGI [8] [µM] | GI50 [9] [µM] | TGI [9] [µM] | GI50 [10] [µM] | TGI [10] [µM]
O=C(c1cc(F)c(Cl)cc1Cl)N1N=C(c2ccccc2)CC1(O)c1ccccc1 (centres undefined) | 32.9 | > 100 | 16.9 | 37.8 | 17 | 31.4 | 18.3 | 38.2 | 17.4 | 41.2 | 17.1 | 30.8 | 16.5 | 30.2 | 12.9 | 40.5 | 28.4 | 80.1 | 19.8 | 43
COc1ccc2c(c1)nc(N)c1c3cc(OC)c(OC)cc3cn21 |  | 16.2 | 0.0434 | 16.5 |  | 0.521 | 0.148 | 13.7 | 0.196 | 0.622 |  | 18.4 | 0.0697 | 1.69 |  | 16 | < 0.01 | 0.321 | 0.281 | 12.6
O=[N+]([O-])c1ccc(-c2nc(N(CCO)CCO)c3ccccc3n2)o1 | 0.192 | 1.03 | 0.194 | 0.442 | 0.118 | 0.264 | 0.0419 | 0.397 | 0.311 | 2.91 | 0.269 | 1.64 | 0.272 | 1.24 | 0.293 | 2.84 | 0.156 | 0.401 | 0.508 | > 38.9
OC(C1=C/C(=C\c2ccncc2)c2ccccc21)c1ccncc1 (centres undefined) |  | 31.4 |  | 22.3 |  | 29.3 |  | 30.7 |  | 15.7 |  | 32 |  | 32 |  | 32.9 |  | 31.8 |  | 23.9
CCN(CC)CCOc1ccc(Nc2ncc3cc(-c4ccc(O)cc4)c(=O)n(C)c3n2)cc1 | 13.9 | 30.4 | 15.4 | 30.5 | 1.59 | 17.2 | 1.07 | 2.78 | 14.6 | 40.3 | 0.168 | 5.87 | 0.629 | 11.6 | 0.831 | 24.6 | 0.0791 | 24.8 | 0.2 | 21.8
CCN1C(=O)N(CC)C2C1NN=c1s/c(=C3\C(=O)N(CC(C)C)c4ccccc43)c(=O)n12 (centres undefined) | 0.542 | 11.4 | 2.38 | > 100 | 0.401 | 2.32 | 0.454 | > 100 | 0.34 | 1.64 | 0.811 | > 100 | 0.327 | 1.66 | 0.514 | > 100 | 0.493 | 39.8 | 0.974 | > 100
CCC1=C[C@@H]2CN(C1)Cc1c([nH]c3ccccc13)[C@@](C(=O)OC)(c1cc3c(cc1OC)N(C=O)[C@H]1[C@@](O)(C(=O)OC)[C@H](OC(C)=O)[C@]4(CC)[C@@H]5C[C@@H]5CN5CC[C@]31[C@@H]54)C2 | 0.00156 |  | 0.00144 | > 6.25 | < 0.000625 | 0.00122 | < 0.000625 | > 6.25 | < 0.000625 | < 0.000625 | < 0.000625 | > 6.25 | 0.000646 | 0.0201 | 0.000826 | > 6.25 | < 0.000625 |  | 0.000789 | > 6.25
CCOC(=O)CCCn1c(SC)nc2cc(-c3ccco3)[nH]c2c1=O | 16.7 | 54.8 | > 100 | > 100 | > 100 | > 100 | > 100 | > 100 | > 100 | > 100 | 57.8 | > 100 | 20.4 | 53.2 | > 100 | > 100 | 5.74 | 32.5 | > 100 | > 100
Nc1ccc(C(=O)c2ccc(N)c(Br)c2)cc1Br | 0.228 | 0.664 | 0.381 | 4.65 | 0.393 | 2.2 | 0.428 | > 100 | 0.326 | 2.8 | 0.848 | > 65.7 | 0.296 | 3.16 | 0.392 | > 63.4 | 0.425 | 32.6 | 0.654 | 59.4
COc1ccc(CNc2nc3cc(N)cc(N)c3nc2-c2ccccc2)cc1OC | 15.3 | 29.8 | 17 | 39.8 | 7.15 | > 48.8 | 20.9 | > 63.2 | 3.17 | > 89.9 | 6.53 | > 37.6 | 18.9 | 41.1 | 10.9 | 29.1 | 22.8 | 45.6 | 3.92 | > 100
COc1ccccc1C1=C2C(=O)N(C)C(c3ccccc3OC)=C2C(=O)N1C |  | > 100 |  | > 100 |  | > 100 |  | > 100 |  | > 100 |  | > 100 |  | 64.2 |  | > 100 |  | > 100 |  | > 100
